In ChEMBL document CHEMBL1127704 (J Med Chem, 1994):

How the values were obtained:
[1] = target: T1, Bifunctional dihydrofolate reductase-thymidylate synthase (Toxoplasma gondii, UniProt Q07422)
T1 sequence (Q07422 whole entry): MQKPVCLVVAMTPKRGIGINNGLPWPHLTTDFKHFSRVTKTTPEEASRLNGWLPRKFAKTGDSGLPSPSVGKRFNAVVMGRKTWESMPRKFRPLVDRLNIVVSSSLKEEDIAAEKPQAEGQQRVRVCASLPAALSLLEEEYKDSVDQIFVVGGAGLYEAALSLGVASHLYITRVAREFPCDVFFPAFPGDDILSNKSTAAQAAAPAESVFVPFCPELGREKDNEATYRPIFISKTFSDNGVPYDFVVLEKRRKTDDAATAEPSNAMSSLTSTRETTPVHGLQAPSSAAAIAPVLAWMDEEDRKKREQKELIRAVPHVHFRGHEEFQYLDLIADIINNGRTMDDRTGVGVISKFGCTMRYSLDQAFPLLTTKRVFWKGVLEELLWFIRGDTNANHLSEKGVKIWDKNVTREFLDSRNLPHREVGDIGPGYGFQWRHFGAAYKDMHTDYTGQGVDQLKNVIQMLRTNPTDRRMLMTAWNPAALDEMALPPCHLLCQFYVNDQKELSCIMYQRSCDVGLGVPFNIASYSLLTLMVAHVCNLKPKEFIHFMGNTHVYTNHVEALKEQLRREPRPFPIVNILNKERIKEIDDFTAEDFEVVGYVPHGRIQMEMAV
Description: Inhibition of Dihydrofolate reductase of Toxoplasma gondii

[2] = target: T2, Dihydrofolate reductase (Rattus norvegicus, UniProt Q920D2)
T2 sequence (Q920D2 whole entry): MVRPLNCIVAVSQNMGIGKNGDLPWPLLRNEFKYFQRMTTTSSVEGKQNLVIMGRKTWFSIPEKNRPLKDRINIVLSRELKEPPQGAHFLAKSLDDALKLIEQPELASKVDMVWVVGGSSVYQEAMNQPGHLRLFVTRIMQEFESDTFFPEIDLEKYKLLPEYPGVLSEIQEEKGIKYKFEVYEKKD
Description: Inhibition of Dihydrofolate reductase (DHFR) of in rat liver

[3] = target: T3, Dihydrofolate reductase (Pneumocystis carinii, UniProt P16184)
T3 sequence (P16184 whole entry): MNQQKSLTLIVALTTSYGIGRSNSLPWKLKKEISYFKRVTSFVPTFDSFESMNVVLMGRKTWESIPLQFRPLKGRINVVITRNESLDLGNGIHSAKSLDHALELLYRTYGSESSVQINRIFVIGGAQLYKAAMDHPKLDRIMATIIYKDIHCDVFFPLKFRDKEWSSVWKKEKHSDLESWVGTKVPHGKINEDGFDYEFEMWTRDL
Description: Inhibition of Dihydrofolate reductase of Pneumocystis carinii

Row | Structure (SMILES) | IC50 [2] [nM] | IC50 [3] [nM] | IC50 [1] [nM]
1 | COc1cc(CNc2ccc3nc(N)nc(N)c3c2Cl)cc(OC)c1OC | 6 | 33 | 7
2 | COc1ccc(OC)c(CNc2ccc3nc(N)nc(N)c3c2Cl)c1 | 28 | 53 | 17
3 | COc1ccc(OC)c(CCCNc2ccc3nc(N)nc(N)c3c2Cl)c1 | 1900 | 26000 | 1000
4 | COc1cc(CCNc2ccc3nc(N)nc(N)c3c2Cl)cc(OC)c1OC | 5400 | 43000 | 2600
5 | COc1ccc(OC)c(CCNc2ccc3nc(N)nc(N)c3c2Cl)c1 | – | 12000 | 990
6 | COc1cc(N(C)Cc2ccc3nc(N)nc(N)c3c2Cl)cc(OC)c1OC | – | – | 6.4
7 | COc1cc(NCc2ccc3nc(N)nc(N)c3c2Cl)cc(OC)c1OC | 5.9 | 33 | 5.2

The remaining compounds from weak to strong by IC50 [3], led by results:

Row | IC50 [2] [nM] | IC50 [3] [nM] | Structure (SMILES) | IC50 [1] [nM]
8 | – | 95000 | COc1cc(CCCNc2ccc3nc(N)nc(N)c3c2Cl)cc(OC)c1OC | 14000
9 | 38 | 170 | COc1cc(CN(C)c2ccc3nc(N)nc(N)c3c2Cl)cc(OC)c1OC | 16
10 | 44 | 51 | COc1ccc(OC)c(NCc2ccc3nc(N)nc(N)c3c2Cl)c1 | 30
